In ChEMBL document CHEMBL5331123, “Potent Dual Inhibitors of Steroid Sulfatase and 17β-Hydroxysteroid Dehydrogenase Type 1 with a Suitable Pharmacokinetic Profile for In Vivo Proof-of-Principle Studies in an Endometriosis Mouse Model” (J Med Chem, 2023):

target: T1, Steryl-sulfatase (Homo sapiens, UniProt P08842); test: Inhibition of human STS expressed in human T47D cells using [3H]E1S as substrate incubated for 1 hr followed by substrate addition measured after 24 hrs in presence of E1S by HPLC analysis; format: cell-based; details: not given
T1 sequence (P08842 whole entry): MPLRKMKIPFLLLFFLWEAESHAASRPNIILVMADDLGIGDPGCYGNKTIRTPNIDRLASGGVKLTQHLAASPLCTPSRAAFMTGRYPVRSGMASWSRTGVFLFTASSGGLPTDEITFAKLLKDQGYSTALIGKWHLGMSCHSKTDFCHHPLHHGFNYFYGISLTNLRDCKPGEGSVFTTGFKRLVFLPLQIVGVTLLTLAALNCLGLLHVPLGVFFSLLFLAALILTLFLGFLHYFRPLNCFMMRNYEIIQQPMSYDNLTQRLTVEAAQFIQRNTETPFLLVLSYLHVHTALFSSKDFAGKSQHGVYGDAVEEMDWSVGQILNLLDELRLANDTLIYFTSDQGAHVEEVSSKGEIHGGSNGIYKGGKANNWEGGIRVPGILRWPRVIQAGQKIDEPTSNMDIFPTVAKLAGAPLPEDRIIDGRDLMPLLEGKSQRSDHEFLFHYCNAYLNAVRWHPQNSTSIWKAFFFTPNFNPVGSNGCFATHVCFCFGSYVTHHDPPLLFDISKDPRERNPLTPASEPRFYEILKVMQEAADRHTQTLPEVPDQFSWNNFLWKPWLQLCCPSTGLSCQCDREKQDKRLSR

Row | IC50 [nM] | SMILES
1 | 83 | Cc1cc(-c2ccc(C(=O)N(C)c3ccc(OS(N)(=O)=O)c(F)c3)o2)cc(C)c1O
2 | 15 | NS(=O)(=O)Oc1ccc(-c2ccc(C(=O)c3c(F)ccc(O)c3F)s2)cc1Cl

target: T2, 17-beta-hydroxysteroid dehydrogenase type 1 (Homo sapiens, UniProt P14061); test: Inhibition of human 17beta-HSD1 expressed in human T47D cells using [3H]E1 as substrate incubated for 1 hr followed by substrate addition measured after 40 mins in presence of E1 by HPLC analysis; format: cell-based; details: not given
T2 sequence (P14061 whole entry): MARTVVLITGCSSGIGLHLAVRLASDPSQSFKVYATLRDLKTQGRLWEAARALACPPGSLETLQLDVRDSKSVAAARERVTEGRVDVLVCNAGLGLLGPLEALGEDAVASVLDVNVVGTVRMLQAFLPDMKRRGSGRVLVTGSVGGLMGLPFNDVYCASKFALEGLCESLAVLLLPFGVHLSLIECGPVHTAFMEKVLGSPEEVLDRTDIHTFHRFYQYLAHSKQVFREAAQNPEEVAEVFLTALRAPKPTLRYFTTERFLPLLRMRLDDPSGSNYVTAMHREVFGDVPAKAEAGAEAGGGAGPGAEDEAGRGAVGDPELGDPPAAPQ

Row | IC50 [nM] | SMILES
3 | 140 | Cc1cc(-c2ccc(C(=O)N(C)c3ccc(OS(N)(=O)=O)c(F)c3)o2)cc(C)c1O

species on record: Homo sapiens; test: Selectivity ratio of IC50 for human 17beta-HSD2 to IC50 for human 17beta-HSD1; details: not given

Row | Ratio IC50 | SMILES
4 | 36 | NS(=O)(=O)Oc1ccc(-c2ccc(C(=O)c3c(F)ccc(O)c3F)s2)cc1Cl

tested on: not listed separately; test: Metabolic stability in human liver S9 fraction assessed as half life measured upto 60 mins in presence of NADPH by LC-MS/MS analysis; format: ADME, subcellular; details: liver S9 fraction

Row | half-life [min] | SMILES
5 | < 5 | NS(=O)(=O)Oc1ccc(-c2ccc(C(=O)c3c(F)ccc(O)c3F)s2)cc1Cl

tested on: not listed separately; test: Metabolic stability in mouse liver S9 fraction assessed as half life measured upto 60 mins in presence of NADPH by LC-MS/MS analysis; format: ADME, subcellular; details: liver S9 fraction

Row | half-life [min] | SMILES
6 | < 5 | NS(=O)(=O)Oc1ccc(-c2ccc(C(=O)c3c(F)ccc(O)c3F)s2)cc1Cl

target: T2, 17-beta-hydroxysteroid dehydrogenase type 1; test: Inhibition of human placental cytosolic fraction 17beta-HSD1 using [3H]E1 as substrate measured after 10 mins in presence of NADH by HPLC analysis; format: tissue-based, Placenta; details: not given

Row | IC50 [nM] | SMILES
7 | 500 | Cc1cc(-c2ccc(C(=O)N(C)c3ccc(OS(N)(=O)=O)c(F)c3)o2)cc(C)c1O

target: T3, 17-beta-hydroxysteroid dehydrogenase type 2 (Homo sapiens, UniProt P37059); test: Inhibition of human placental microsomal fraction 17beta-HSD2 using [3H]E2 as substrate measured after 20 mins in presence of NAD+ by HPLC analysis; format: microsomes, Placenta, Microsome; details: not given
T3 sequence (P37059 whole entry): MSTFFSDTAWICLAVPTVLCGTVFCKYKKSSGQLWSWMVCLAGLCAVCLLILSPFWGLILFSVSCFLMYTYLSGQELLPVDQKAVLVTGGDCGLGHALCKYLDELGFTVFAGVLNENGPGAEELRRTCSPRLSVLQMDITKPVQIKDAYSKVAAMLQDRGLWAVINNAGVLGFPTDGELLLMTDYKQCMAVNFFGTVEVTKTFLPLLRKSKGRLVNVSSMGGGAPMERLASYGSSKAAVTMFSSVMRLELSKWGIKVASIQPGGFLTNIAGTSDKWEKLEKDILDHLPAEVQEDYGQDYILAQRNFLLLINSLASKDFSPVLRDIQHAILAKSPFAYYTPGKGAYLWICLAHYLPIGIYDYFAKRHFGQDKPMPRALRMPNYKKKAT

Row | IC50 [µM] | SMILES
8 | 3.2 | Cc1cc(-c2ccc(C(=O)N(C)c3ccc(OS(N)(=O)=O)c(F)c3)o2)cc(C)c1O

species on record: Homo sapiens; test: Selectivity ratio of IC50 for human placental microsomal fraction 17beta-HSD2 to IC50 for human placental microsomal fraction 17beta-HSD1; details: not given

Row | Ratio IC50 | SMILES
9 | 6 | Cc1cc(-c2ccc(C(=O)N(C)c3ccc(OS(N)(=O)=O)c(F)c3)o2)cc(C)c1O
10 | 33 | NS(=O)(=O)Oc1ccc(-c2ccc(C(=O)c3c(F)ccc(O)c3F)s2)cc1Cl
